The test relates to C57BL/KsJ db/db mice. Kind of test: Hypoglycemic effect of single or combined administration in db/db mice (plasma glucose concentration). It is filed as in vivo, mouse. The settings on record: for Decreasing effect for the plasma glucose concentration (in words) / Relative index (mean plasma glucose of group / mean of control group) / Decreasing rate (of plasma glucose concentration vs control group): 14th day; for Decreasing effect for the plasma glucose concentration (in words): compared with db/+m normal mouse (187±16); for Relative index (mean plasma glucose of group / mean of control group) / Decreasing rate (of plasma glucose concentration vs control group) / Plasma glucose concentration: oral once a day for 14 days; for Decreasing rate (of plasma glucose concentration vs control group): (control mean − group mean)/control mean ×100; for Plasma glucose concentration: plasma 2 hours after administration on the 14th day, mean±standard deviation for 6 mice, control group 499 ± 81. On the procedure:
As test animals, C57BL/KsJ db/db mice were used, which were created in Jackson Laboratory (USA) and known as an obesity, hyperlipemia, hyperinsulinemia, and insulin-resistant model (Journal of Clinical Investigation, 85, pp 962-967, 1990). Blood was collected from the orbital venous plexus of each 7-week-old db/db mouse using a heparin-treated capillary tube, and centrifugation was performed to collect plasma. Thereafter, the plasma glucose concentration (Glucose CII-Test Wako (Wako Pure Chemical Industries, Ltd.)), the insulin concentration (Lebis Insulin Kit: for mouse-T (SHIBAYAGI)), and the triglyceride concentration (Triglyceride E-Test Wako (Wako Pure Chemical Industries, Ltd.)) were measured for classification. The classification was performed so that distribution of each measurement item is uniform for each group by block allocation based on many variables in which the plasma glucose concentration is most emphasized using the measured values of the plasma glucose concentration, the body weight, the insulin concentration, and the triglyceride concentration. […] Two hours after the administration of the medicines on the 14th day from the beginning day of the administration, blood was collected from the orbital venous plexus, and the plasma thereof was collected to measure the plasma glucose concentration. […] Each plasma glucose concentration is expressed as mean±standard deviation for 6 mice of each group. Each decreasing rate is calculated from ((mean of plasma glucose concentration of control group)−(mean of plasma glucose concentration of each group))/(mean of plasma glucose concentration of control group)×100, while each relative index is calculated from (mean of plasma glucose concentration of each group)/(mean of plasma glucose concentration of control group)

As for `CCc1ccc(CCOc2ccc(CC3SC(=O)NC3=O)cc2)nc1.Cl` (centres unmarked) [Pioglitazone hydrochloride, 5-[4-[2-(5-Ethyl-2-pyridyl)ethoxy]benzyl]thiazolidine-2,4-dione hydrochloride], the “Decreasing effect for the plasma glucose concentration (in words)” value is “insufficient”, the “Relative index (mean plasma glucose of group / mean of control group)” value was determined as 0.80, the “Decreasing rate (of plasma glucose concentration vs control group)” value is reported as 20% and the Plasma glucose concentration is 401 ± 173 mg/dL.

In the case of `O=C([O-])C(Cl)(Cl)CCCCCCCCCCc1ccc(Cl)cc1.[Na+]` [sodium 2,2-dichloro-12-(4-chlorophenyl)-dodecanoate], the “Decreasing effect for the plasma glucose concentration (in words)” value is “insufficient”, the “Relative index (mean plasma glucose of group / mean of control group)” value was 0.92, the “Decreasing rate (of plasma glucose concentration vs control group)” value stood at 8% and the Plasma glucose concentration came to 459 ± 77 mg/dL.

The values are drawn from patent publication US20060025478A1, “Medicine for prevention or treatment of diabetes” (priority 2004, published 2006).
